Columns and labels:
Assay type in all cases: biochemical
[1] = biological target: T1, ArgD7002 (N-acetylornithine aminotransferase) (Picosynechococcus sp. PCC 7002, UniProt B1XNF8); assay: HPLC of PITC derivatives, glutamate formation; details: 1 mM GABA, 1 mM 2-oxoglutarate, 50 mM K-phosphate, pH 9, room temperature, 1 h
T1 construct: gene argD; full ORF, N-terminal His10 tag kept, E. coli DH5alpha, Ni-NTA purified
T1 sequence (B1XNF8 1-418): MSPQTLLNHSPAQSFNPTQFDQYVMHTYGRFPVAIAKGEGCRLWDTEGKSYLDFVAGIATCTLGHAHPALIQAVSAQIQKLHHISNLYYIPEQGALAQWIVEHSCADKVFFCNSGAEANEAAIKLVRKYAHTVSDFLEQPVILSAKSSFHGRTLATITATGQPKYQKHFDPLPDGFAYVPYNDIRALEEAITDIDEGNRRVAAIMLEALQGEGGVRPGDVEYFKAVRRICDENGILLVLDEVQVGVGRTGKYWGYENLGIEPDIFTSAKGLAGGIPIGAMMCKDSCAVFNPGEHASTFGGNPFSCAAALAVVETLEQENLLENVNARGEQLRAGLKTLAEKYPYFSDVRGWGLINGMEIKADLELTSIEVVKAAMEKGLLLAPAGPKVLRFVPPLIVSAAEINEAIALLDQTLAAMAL

[2] = biological target: T2, ArgD6803 (N-acetylornithine aminotransferase) (Synechocystis sp. PCC 6803, UniProt P73133); assay: HPLC of PITC derivatives, glutamate formation; details: 1 mM 2-oxoglutarate, 50 mM K-phosphate, pH 9, room temperature, 1 h
T2 construct: gene argD; full ORF, N-terminal His10 tag kept, E. coli DH5alpha, Ni-NTA purified

[3] = biological target: T3, GadA6803 (glutamate decarboxylase) (Synechocystis sp. PCC 6803, UniProt P73043); assay: HPLC of PITC derivatives, GABA formation; details: 1 mM glutamate, 50 mM K-phosphate, pH 4.5, room temperature, 1 h
T3 construct: gene gad; full ORF, N-terminal His10 tag kept, E. coli DH5alpha, Ni-NTA purified

NCCCC(=O)O [GABA]
HPLC of PITC derivatives, glutamate formation [1]: argD6803 or argD7002 was incubated with GABA and 2-oxoglutarate, glutamate was produced | HPLC of PITC derivatives, glutamate formation ([2]; 1 mM GABA): argD6803 or argD7002 was incubated with GABA and 2-oxoglutarate, glutamate was produced

N[C@@H](CCC(=O)O)C(=O)O [glutamate]
HPLC of PITC derivatives, GABA formation [3]: this protein catalyzes the conversion of glutamate to GABA

NCCC[C@H](N)C(=O)O [L-ornithine]
HPLC of PITC derivatives, glutamate formation ([2]; 1 mM L-ornithine): argD6803 or argD7002 was incubated with L-ornithine and 2-OG, glutamate was produced
